Measurements taken from patent publication US5098995A, “GRF Analogs VIIA” (The Salk Institute For Biological Studies, priority 1989, dated 1992).
Ends that are not written are not given here.

What follows are substances tested on cells of rat pituitary glands (assay: in vitro assay of growth hormone release from cultured rat pituitary cells, side-by-side with the hpGRF(1-40)-OH standard). Conditions: potency for GH release relative to hGRF(1-40)-OH standard = 1.0; equimolar concentrations; rat pituitary cell cultures; incubation 3 to 4 hours; ir GH by radioimmunoassay; limits in brackets.
Assay type: cell-based
Protocol: To determine the relative effectiveness of certain representative synthetic peptides to promote the release of growth hormone, in vitro assays are carried out using synthetic hpGRF(1-40)-OH as a standard in side-by-side comparison with equimolar concentrations of the representative analogs which have been synthesized. Cultures are used which include cells of rat pituitary glands removed some three to five days previously. Such cultures are considered optimal for the secretion of growth hormone and are used for the comparative testing, in the general manner described in Vale et al. Endocrinology, 91, 562-572 (1972) and as more particularly described in Vale et al. Endocrinology, 112, 1553-1555 (1983). Incubation with the substance to be tested is carried out for 3 to 4 hours, and aliquots of the culture medium are removed and processed to measure their contents in immunoreactive GH(ir GH) by a well-characterized radioimmunoassay.

Substance	In Vitro Potencies
[N^a MeTyr^1, Ala^15, CMA^19, Nle^27, Asn^28 ]-hGRF(1-29)-NH2	7.07 (3.8-13.6)
[N^a MeTyr^1, Ala^15, CML^17, Nle^27, Asn^28 ]-hGRF(1-29)-NH2	5.41 (3.5-8.3)
[N^a MeTyr^1, Ala^15, CML^22, Nle^27, Asn^28 ]-hGRF(1-29)-NH2	7.18 (4.1-12.7)
[N^a MeTyr^1, Ala^15, CML^23, Nle^27, Asn^28 ]-hGRF(1-29)-NH2	1.96 (1.1-3.3)
[N^a MeTyr^1, Ala^15, CML^26, Nle^27, Asn^28 ]-hGRF(1-29)-NH2	6.44 (4.0-10.3)
[N^a MeTyr^1, CMA^13, Ala^15, Nle^27, Asn^28 ]-hGRF(I-29)-NH2	2.24 (1.4-3.4)
[N^a MeTyr^1, CML^5, Ala^15, Nle^27, Asn^28 ]-hGRF(1-29)-NH2	3.59 (2.3-5.5)
hGRF(1-40)--OH: synthetic human pancreatic/hypothalamic GH releasing factor (1-40) free acid, used as the standard in the in vitro and in vivo tests (YADAIFTNSYRKVLGQLSARKLLQDIMSRQQGESNQERGA-OH; UniProt P01286 32-71, looked up, fragment) [reference compound]	1.0
